Experimental data reported in patent US20100227401A1, “MEDIA AND PROCESSES FOR THE EX VIVO PRODUCTION OF MEGAKARYOCYTES FROM HUMAN CD34+ CELLS” (FOOD INDUSTRY RESEARCH AND DEVELOPMENT INSTITUTE, priority 2003, published 2010).

What was measured:
[1] = system: serum-free expanded CD34^+ cells; assay: Ex vivo Mk induction from serum-free expanded CD34+ cells, 1-week induction, TNC count and Mk count (CD41a+CD61+); assay type: cell-based, human; conditions: preliminary screening of serum substitutes (data not shown)
Experimental: Each experiment was repeated at least four times. […] (1978), Statistics for Experimenters: An Introduction to Design, Data Analysis, and Model Building, Wiley, New York). In addition, the statistical significance was determined by an F-test, and the significance of the regression coefficient was analyzed by a t-test. […] After cultivation for 1 week, the cells were collected and subjected to the TNC count as described above and a megakaryocyte count (Mk count) so as to evaluate the ex vivo megakaryocytopoietic effects of the tested serum substitutes and cytokines. The Mk count was conducted by labeling the collected cells with CD41a-FITC and CD61-PE and analyzed according to the operating procedure described in the following section, entitled “4. […] The incubation was terminated by washing three times with 1 mL FACS buffer. Optionally, the first antibody-labeled cells were further incubated with a second antibody conjugated with PE or FITC in the same manner. After washing with FACS buffer, the labeled cells were resuspended in 1 mL FACS buffer and analyzed on a FACSCalibur analyzer (Becton-Dickinson, NJ, USA). The data were analyzed by CellQuest software. A replicate sample incubated with FITC- or PE-conjugated mouse IgG1 was used as an isotype control for specificity. […] SF-Mk as established in Example 1, IMDM+10% FBS, IMDM+2% FBS, […]-VIVO 10, X-VIVO 15, X-VIVO 20,[…], DMEM, RPMI 1640, α-MEM, BME medium, […] medium, and Medium 199, respectively. IMDM+10% FBS, IMDM+2% FBS, […]-VIVO 10, X-VIVO 15, X-VIVO 20,[…], DMEM, RPMI 1640, α-MEM, BME medium, […] medium and Medium 199 were respectively supplemented with the cytokine cocktail (CC) as screened in Example 1. […] After 1-week induction, the Mk number of each group was calculated. […] IMDM supplemented with a serum substitute consisting of 4.9 g/L BSA, 2.72 μg/mL insulin, and 80 μg/mL transferrin (based on the applicants' previous study, unpublished data) and the reference cytokine cocktail as previously reported in Te-Wei Chen et al. (2009), supra; and • (3) FBS group: IMDM supplemented with 10% FBS and the reference cytokine cocktail.

[2] = system: hematopoietic progenitor cells (HPCs); conditions: cited from earlier work
[3] = system: CD34^+-selected cells; conditions: PMP 200 ng/mL; TPO 10 ng/mL, IL-3 10 ng/mL; cited from earlier work
[4] = mpIL added to growth factor cocktail

Compound | effect on ex vivo megakaryocytopoiesis [1] | other results
NC(=O)CC[C@H](N)C(=O)O [L-glutamine] | no effect | –
OCCS [Step 2-ME, 2-mercaptoethanol] | no effect | –
CC(=O)C(=O)[O-].[Na+] [sodium pyruvate] | no effect | –
insulin | significantly positive effects | –
mpIL: recombinant mpl ligand | – | Mk purity level [2, 4]: 80%; final yield of Mks [2, 4]: 4×10^5; cell number ([2]; mpIL alone): 1.5×10^5 cells
promegapoietin [PMP] | – | megakaryocytopoietic activity [3]: comparable to that achieved with TPO plus IL-3
transferrin | significantly positive effects | –
